Key:
[1] = biological target: T1, Aβ40 (amyloid beta 40) fibrils (Homo sapiens, UniProt P05067); experiment: fluorescence titration of […] probe with fibrils; type: binding
T1 construct: gene APP; Aβ40 fibrils

[2] = biological target: T2, Aβ42 (amyloid beta 42) fibrils (Homo sapiens, UniProt P05067); experiment: fluorescence titration of […] probe with fibrils; type: binding
T2 construct: gene APP; Aβ42 fibrils
T2 sequence (P05067 672-713 limits assumed): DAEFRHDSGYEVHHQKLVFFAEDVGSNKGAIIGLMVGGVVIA

T1 sequence (P05067 672-711 limits assumed): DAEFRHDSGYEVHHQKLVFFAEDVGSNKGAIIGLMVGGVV

- Kd [1]: 6.27 µM
- Kd [2]: 3.78 µM
Compound: CN(C)c1ccc(-c2ccc3cc(-c4nc5ccccc5s4)c(=N)oc3c2)cc1 [ICTAD-1]

Source: paper PMC8159352, “Differentiating Aβ40 and Aβ42 in amyloid plaques with a small molecule fluorescence probe” (Chemical Science, 2020)
